Measured values: US20070142433A1, “Angiogenesis-affecting compounds and methods of use thereof” (priority 2004, published 2007)
Counter-ions that a name gives are not always drawn.

Tests used:
Type in all cases: cell-based
[1] = system: NHDF (human dermal fibroblasts) scattering; experiment: NHDF spheroid evaluation (fibroblast scattering)
Procedure: Where the test compound was classified as an inhibitor or stimulator, a second screening process was performed. In the second screen, the test substance was thawed and 5 mM of the substance was diluted to a 10 fold concentrated working solution (100 μM) in endothelial cell basal medium. No supplements were used in the basal medium.
Instead of HUVEC, spheroids were prepared by pipetting 400 human dermal fibroblasts (NHDF) into each well of nonadhesive 96-well plates. Prior to use the NHDF were cultured according to the supplier's instructions (PromoCell, Heidelberg, Germany). The cells were allowed to aggregate overnight into spheroids (Korff and Augustin: J Cell Biol 143: 1341-52, 1998). After aggregation, 48 NHDF spheroids were harvested. Each of the harvested spheroids was seeded in 900 μl of methocel-collagen solution and pipetted into an individual well of a 24-well plate to allow collagen gel polymerization.
Thirty (30) minutes after seeding, the test substance was added. The working dilution (10 fold concentration) was utilized, 100 μl was pipetted on top of the polymerized collagen gel in each well. The plates were then incubated at 37° C. for 24 hours. At the end of the incubation period the plates were fixed by adding 1 ml paraformaldehyde (10%) to each well.
The NHDF spheroids were microscopically assayed for fibroblast scattering intensity. […] For exemplary results, see FIG. 1.

HUVEC = experiment: Cytoviability assay (resazurin), HUVEC; conditions: Homo sapiens, 24 hours after treatment, read-out: IC50 cell viability HUVEC
Procedure: (§1) A cell viability assay based on cellular reduction of resazurin to the fluorescent product resorufin was performed. Viable cells can metabolize and reduce the dye, whereas dead cells rapidly lose the capacity to do so, making the increase in fluorescence directly proportional to the number of viable cells. The tested compounds were added in a log2 titration and viable cells were analyzed 24 hours after treatment. The fluorescence was determined at an excitation wavelength of 560 nm and an emission wavelength of 590 nm. The percentage of viable cells in relation to the untreated control proliferation was calculated. […] Perhexiline results are depicted graphically in FIGS. 6A-6C and Erythromycin results in FIGS. 7A-7C.

SMC = experiment: Cytoviability assay (resazurin), SMC; conditions: 24 hours after treatment, read-out: IC50 cell viability SMC
Procedure: as §1

A375 = experiment: Cytoviability assay (resazurin), A375; conditions: Homo sapiens, A-375, 24 hours after treatment, read-out: IC50 cell viability A375
Procedure: as §1

B16F10 cells = experiment: Cell viability of B16F10 cells; conditions: Mus musculus, B16-F10; after 24 and 48 hours incubation
Procedure: as §1
Through the two aforementioned assays it was determined that RENCA cells are more sensitive when treated with Perhexiline than the other cell types in the proliferation assay and in the viability assay. Therefore, the B16F10 cells were subsequently tested. The B16F10 tumor model, like the RENCA model, is an orthotopic tumor model.

[2] = system: Endothelial cells, Fibroblast, Alexander cells; experiment: Viability of cells (Endothelial cells, Fibroblast, Alexander cells)

IC50 (A375): 10 µM
IC50 (B16F10 cells): 10 µM
SMILES: C1CCC(C(CC2CCCCN2)C2CCCCC2)CC1 (stereo not shown) [Perhexiline, Perhexiline maleate]
IC50 ([1]; Homo sapiens, NHDF): 19 µM
fibroblast scattering (invasion) effect ([1]; NHDF spheroids in collagen gel, no supplements, 24 hours): no fibroblast invasion effect
IC50 (HUVEC): 8.4 µM
IC50 (SMC): 32 µM
IC50 [2]: ~10 µM
